Measurements reported in patent US20220220128A1, “HETEROCYCLIC COMPOUNDS AS KINASE INHIBITORS, COMPOSITIONS COMPRISING THE HETEROCYCLIC COMPOUND, AND METHODS OF USE THEREOF” (JS Innopharm (Shanghai) Ltd, priority 2019, published 2022).

Legend:
human RET kinase = target: T1, human RET kinase (Homo sapiens, UniProt P07949); experiment: RET Kinase Assay (LanthaScreen TR-FRET enzymatic assay); assay type: biochemical; conditions: 7 nM RET, 23 μM ATP
T1 construct: purchased Carna 08-159
Outline: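 TR-FRET enzymatic read-out using 23 μM ATP, 3 μM FAM-P2 substrate and 7 nM human RET, after 15-min compound pretreatment at room temperature and a 1 h reaction at 28° C in HEPES pH 7.5 buffer. Percent of DMSO control fitted to nonlinear sigmoid curves for IC50.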

BAF3-KIF5B-RET cells = target: T2, BAF3-KIF5B-RET cells (Homo sapiens, UniProt P07949); experiment: BAF3-KIF5B-RET Cell proliferation assay (CellTiter-Glo, 72 hours); assay type: cell-based; conditions: growth inhibition, read-out: BA/F3-KIF5B-RET Cellular activity
T2 construct: fused on or other part: P33176 (Kinesin-1 heavy chain)
T2 sequence (P07949 whole entry, change not shown, the tested form may be a part): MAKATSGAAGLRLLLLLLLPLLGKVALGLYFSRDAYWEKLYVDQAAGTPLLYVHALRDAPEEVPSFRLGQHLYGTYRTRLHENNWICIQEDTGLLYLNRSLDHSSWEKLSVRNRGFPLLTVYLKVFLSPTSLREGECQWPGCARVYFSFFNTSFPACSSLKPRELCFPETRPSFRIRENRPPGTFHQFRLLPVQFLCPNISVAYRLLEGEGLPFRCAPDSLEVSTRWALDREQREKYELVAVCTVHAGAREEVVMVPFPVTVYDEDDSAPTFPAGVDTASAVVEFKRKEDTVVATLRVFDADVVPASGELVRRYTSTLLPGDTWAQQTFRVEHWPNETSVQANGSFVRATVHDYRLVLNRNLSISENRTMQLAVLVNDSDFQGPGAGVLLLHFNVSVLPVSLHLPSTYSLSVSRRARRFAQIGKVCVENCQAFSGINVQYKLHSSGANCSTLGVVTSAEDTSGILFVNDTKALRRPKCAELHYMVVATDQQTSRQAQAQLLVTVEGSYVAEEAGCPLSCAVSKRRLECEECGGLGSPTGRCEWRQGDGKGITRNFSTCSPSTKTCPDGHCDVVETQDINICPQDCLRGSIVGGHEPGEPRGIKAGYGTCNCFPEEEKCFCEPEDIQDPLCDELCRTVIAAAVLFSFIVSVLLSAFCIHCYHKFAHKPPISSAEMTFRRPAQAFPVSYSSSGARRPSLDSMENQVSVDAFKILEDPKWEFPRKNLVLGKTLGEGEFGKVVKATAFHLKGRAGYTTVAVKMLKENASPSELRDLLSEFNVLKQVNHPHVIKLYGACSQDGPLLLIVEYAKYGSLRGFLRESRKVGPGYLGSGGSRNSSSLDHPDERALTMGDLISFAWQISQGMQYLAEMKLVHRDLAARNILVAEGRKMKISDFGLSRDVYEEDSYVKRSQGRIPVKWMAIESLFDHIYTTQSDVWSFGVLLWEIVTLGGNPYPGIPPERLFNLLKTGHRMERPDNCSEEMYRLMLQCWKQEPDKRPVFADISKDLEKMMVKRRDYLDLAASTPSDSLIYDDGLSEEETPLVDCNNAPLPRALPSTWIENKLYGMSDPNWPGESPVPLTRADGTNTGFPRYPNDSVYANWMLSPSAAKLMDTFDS
Method: Compounds disclosed herein were tested for the inhibition of RET by a cancer cell proliferation assay commonly known as CellTiter-Glo assay. In this assay, a complete media was prepared by adding 10% fetal bovine serum to RPMI-1640 medium (Life technology) for BAF3-FIF5B-RET cells. BAF3-KIF5B-RET cells were added to each of 88 wells of a 96 well plate at a seeding density of 2,000 cells/well/95 μL. The cells were allowed to attach to the plate by incubating at 37° C. for 24 hours. The compound was dissolved in DMSO (SIGMA). A solution of test compound was prepared in complete media by serial dilution to obtain the following concentrations: 20 μM, 6.67 μM, 2.22 μM, 0.74 μM, 0.25 μM, 0.082 μM, 0.027 μM, 0.0091 μM and 0.0030 μM. The test compound solution (5 μL) was added to each of 80 cell-containing wells. The final concentrations of the compound were following: 1 μM, 0.33 μM, 0.11 μM, 0.037 μM, 0.012 μM, 0.0041 μM, 0.0014 μM, 0.00046 μM and 0.00015 μM. The final concentration of DMSO is 0.1%. To the 8 remaining cell-containing wells, only complete media (containing 0.1% DMSO) was added to form a control group in order to measure maximal proliferation. To the remaining 8 empty wells, complete media was added to for a vehicle control group in order to measure background. The plates were incubated at 37° C. for 72 hours. 50 μl of CellTiter-Glo® Reagent was added to each well. Mix contents for 2 minutes on an orbital shaker to induce cell lysis. Incubate at room temperature for 10 minutes to stabilize luminescent signal. Record luminescence on Paradigm. Cell viability (CV %) was calculated relative to vehicle (DMSO) treated control wells. The IC50 was calculated using GraphPad Prism.

human KDR kinase = target: T3, human KDR kinase (Homo sapiens, UniProt P35968); experiment: KDR Kinase Assay (LanthaScreen TR-FRET enzymatic assay); assay type: biochemical; conditions: 1.2 nM KDR, 92 μM ATP
T3 construct: purchased Carna 08-191
T3 sequence (P35968 20-1356): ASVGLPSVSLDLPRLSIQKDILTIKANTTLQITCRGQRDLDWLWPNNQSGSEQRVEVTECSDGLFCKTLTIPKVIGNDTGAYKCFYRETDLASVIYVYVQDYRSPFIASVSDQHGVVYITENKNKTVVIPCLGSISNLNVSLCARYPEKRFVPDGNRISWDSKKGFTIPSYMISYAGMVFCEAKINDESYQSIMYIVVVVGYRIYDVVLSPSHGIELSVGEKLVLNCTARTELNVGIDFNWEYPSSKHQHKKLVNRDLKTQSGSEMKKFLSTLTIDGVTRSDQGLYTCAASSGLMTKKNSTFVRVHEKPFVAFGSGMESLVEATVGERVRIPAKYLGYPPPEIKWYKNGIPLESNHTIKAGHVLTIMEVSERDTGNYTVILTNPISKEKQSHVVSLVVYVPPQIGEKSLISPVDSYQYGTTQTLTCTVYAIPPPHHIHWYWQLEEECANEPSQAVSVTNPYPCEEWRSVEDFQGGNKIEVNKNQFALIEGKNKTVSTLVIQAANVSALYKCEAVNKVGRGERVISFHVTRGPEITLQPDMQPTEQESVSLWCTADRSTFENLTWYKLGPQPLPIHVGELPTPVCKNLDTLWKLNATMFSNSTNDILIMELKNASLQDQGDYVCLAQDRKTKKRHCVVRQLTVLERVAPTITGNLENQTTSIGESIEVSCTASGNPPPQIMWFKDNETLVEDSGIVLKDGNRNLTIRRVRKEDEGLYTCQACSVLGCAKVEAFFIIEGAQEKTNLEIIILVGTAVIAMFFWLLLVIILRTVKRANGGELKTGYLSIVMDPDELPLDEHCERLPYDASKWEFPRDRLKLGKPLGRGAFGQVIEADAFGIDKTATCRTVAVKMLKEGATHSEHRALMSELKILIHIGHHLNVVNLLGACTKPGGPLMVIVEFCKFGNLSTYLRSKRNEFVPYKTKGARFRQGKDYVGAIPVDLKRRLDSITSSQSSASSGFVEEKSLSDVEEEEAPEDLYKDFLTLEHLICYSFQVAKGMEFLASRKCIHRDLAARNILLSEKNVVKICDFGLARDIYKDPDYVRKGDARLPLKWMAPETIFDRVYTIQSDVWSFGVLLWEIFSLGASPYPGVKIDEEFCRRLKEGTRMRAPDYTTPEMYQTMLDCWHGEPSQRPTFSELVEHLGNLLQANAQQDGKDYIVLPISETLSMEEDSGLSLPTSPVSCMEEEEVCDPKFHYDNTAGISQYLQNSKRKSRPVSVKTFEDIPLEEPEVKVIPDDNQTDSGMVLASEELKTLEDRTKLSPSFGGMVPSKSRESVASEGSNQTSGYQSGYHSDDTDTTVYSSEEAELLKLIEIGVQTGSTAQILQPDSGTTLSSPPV
Outline: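 TR-FRET enzymatic format: after 15-min room-temperature compound pretreatment, 1.2 nM human KDR phosphorylated 3 μM FAM-P22 with 92 μM ATP (HEPES pH 7.5, 28° C., one hour). Reactions were quenched with EDTA buffer. IC50 came from nonlinear sigmoid fits of percent-of-vehicle signal ratios.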

TT cells = experiment: TT Cell Proliferation Assay (WST-8, 8 days); assay type: cell-based; conditions: Homo sapiens, TT, 192 h, growth inhibition in TT cells, read-out: TT Cellular Activity
Outline: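 IC50 was derived from absorbance at 450 nm after 5 h with WST-8, following 8 days' incubation at 37 °C. Final compound levels spanned 0.0005–5 μM in 0.5% DMSO. TT cells were seeded at 6,000 per well in 10% FBS RPMI-1640 and left to attach for 24 h beforehand.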

T1 sequence (P07949 29-1114): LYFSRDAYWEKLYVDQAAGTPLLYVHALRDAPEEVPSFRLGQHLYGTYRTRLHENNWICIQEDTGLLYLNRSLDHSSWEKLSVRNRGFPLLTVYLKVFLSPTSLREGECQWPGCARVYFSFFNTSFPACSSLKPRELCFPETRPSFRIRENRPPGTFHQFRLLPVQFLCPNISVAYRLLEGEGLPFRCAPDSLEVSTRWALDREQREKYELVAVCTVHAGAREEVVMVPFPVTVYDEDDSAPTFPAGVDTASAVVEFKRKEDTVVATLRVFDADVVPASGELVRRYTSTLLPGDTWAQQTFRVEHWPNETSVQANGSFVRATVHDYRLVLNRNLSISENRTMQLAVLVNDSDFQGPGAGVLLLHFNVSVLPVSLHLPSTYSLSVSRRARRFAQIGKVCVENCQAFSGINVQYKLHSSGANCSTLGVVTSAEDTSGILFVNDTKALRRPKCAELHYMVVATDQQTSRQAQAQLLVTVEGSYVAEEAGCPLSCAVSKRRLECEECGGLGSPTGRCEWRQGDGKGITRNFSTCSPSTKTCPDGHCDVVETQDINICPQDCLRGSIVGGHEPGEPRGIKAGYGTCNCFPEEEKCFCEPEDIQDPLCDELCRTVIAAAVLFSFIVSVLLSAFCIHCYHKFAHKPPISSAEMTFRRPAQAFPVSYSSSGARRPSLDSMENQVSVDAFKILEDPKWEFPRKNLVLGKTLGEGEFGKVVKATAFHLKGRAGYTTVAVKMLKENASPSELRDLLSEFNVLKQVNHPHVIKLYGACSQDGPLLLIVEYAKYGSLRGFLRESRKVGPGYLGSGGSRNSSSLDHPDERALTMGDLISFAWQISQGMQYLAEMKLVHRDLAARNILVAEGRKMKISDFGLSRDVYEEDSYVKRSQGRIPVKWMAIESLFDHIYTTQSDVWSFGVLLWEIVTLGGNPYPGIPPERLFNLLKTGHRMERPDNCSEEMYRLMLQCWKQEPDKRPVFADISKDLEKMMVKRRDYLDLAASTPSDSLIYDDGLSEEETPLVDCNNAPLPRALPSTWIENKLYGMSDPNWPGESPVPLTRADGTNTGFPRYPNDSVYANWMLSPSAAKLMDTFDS

SMILES	IC50 (human RET kinase) [nM]	GI50 (BAF3-KIF5B-RET cells) [nM]	IC50 (human KDR kinase) [nM]	IC50 (TT cells) [nM]
Cn1cc(-c2cc(-c3cnc(N4C5CC6CC4CC(NC(=O)c4ncccc4Cl)(C6)C5)cn3)c3c(C#N)cnn3c2)cn1 [Example 112, 3-chloro-N-((1R,3S,5s,7s)-2-(5-(3-cyano-6-(1-methyl-1H-pyrazol-4-yl)pyrazolo[1,5-a]pyridin-4-yl)pyrazin-2-yl)-2-azaadamantan-5-yl)picolinamide]	≤ 10	≤ 10		
COc1ccc(C(=O)N2[C@@H]3CC[C@H]2[C@H]2CN(c4ccc(-c5cc(OCC(C)(C)O)cn6ncc(C#N)c56)cn4)C[C@H]23)cn1 [Example 174, 6-(2-hydroxy-2-methylpropoxy)-4-(6-((3aR,4S,7R,7aS)-8-(6-methoxynicotinoyl)hexahydro-1H-4,7-epiminoisoindol-2(3H)-yl)pyridin-3-yl)pyrazolo[1,5-a]pyridine-3-carbonitrile]	≤ 10	10 to 50		
CC(C)(O)COc1cc(-c2cnc(N3C4CC5CC3CC(NC(=O)c3ncccc3F)(C5)C4)cn2)c2c(C#N)cnn2c1 [Example 168, N-((1R,3S,5s,7s)-2-(5-(3-cyano-6-(2-hydroxy-2-methylpropoxy)pyrazolo[1,5-a]pyridin-4-yl)pyrazin-2-yl)-2-azaadamantan-5-yl)-3-fluoropicolinamide]	≤ 10	10 to 50		
Cn1cc(-c2cc(-c3cnc(N4C5CC6CC4CC(N)(C6)C5)cn3)c3c(C#N)cnn3c2)cn1 [Example 108, 4-(5-((1R,3S,5s,7s)-5-amino-2-azaadamantan-2-yl)pyrazin-2-yl)-6-(1-methyl-1H-pyrazol-4-yl)pyrazolo[1,5-a]pyridine-3-carbonitrile]	≤ 10	10 to 50		
CCOc1cc(-c2cnc(N3C4CC5CC3CC(NC=O)(C5)C4)cn2)c2c(C#N)cnn2c1 [Example 161, N-((1R,3S,5s,7s)-2-(5-(3-cyano-6-ethoxypyrazolo[1,5-a]pyridin-4-yl)pyrazin-2-yl)-2-azaadamantan-5-yl)formamide]	≤ 10	> 100		
CC(C)(O)COc1cc(-c2cnc(N3C[C@@H]4C[C@@](C)(NC(=O)c5c(F)cccc5Cl)C[C@@H]4C3)cn2)c2c(C#N)cnn2c1 [Example 144, 2-chloro-N-((3aR,5s,6aS)-2-(5-(3-cyano-6-(2-hydroxy-2-methylpropoxy)pyrazolo[1,5-a]pyridin-4-yl)pyrazin-2-yl)-5-methyloctahydrocyclopenta[c]pyrrol-5-yl)-6-fluorobenzainide]	≤ 10	≤ 10		
COc1ccc(C(C)N2C[C@H]3CN(c4cnc(-c5cc(OCC(C)(C)O)cn6ncc(C#N)c56)cn4)C[C@H]3C2)cn1 (stereo partly drawn) [Example 176, 6-(2-hydroxy-2-methylpropoxy)-4-(5-((3aR,6aS)-5-(1-(6-methoxypyridin-3-yl)ethyl)hexahydropyrrolo[3,4-c]pyrrol-2(1H)-yl)pyrazin-2-yl)pyrazolo[1,5-a]pyridine-3-carbonitrile]	50 to 100	> 100		
CC(=O)NC12CC3CC(C1)N(c1cnc(-c4cc(-c5cnn(C)c5)cn5ncc(C#N)c45)cn1)C(C3)C2 [Example 111, N-((1R,3S,5s,7s)-2-(5-(3-cyano-6-(1-methyl-1H-pyrazol-4-yl)pyrazolo[1,5-a]pyridin-4-yl)pyrazin-2-yl)-2-azaadamantan-5-yl)acetamide]	≤ 10	≤ 10		
COc1ccc(NC(=O)C23CC4CC(C2)N(c2cnc(-c5cc(OCC(C)(C)O)cn6ncc(C#N)c56)cn2)C(C4)C3)cn1 [Example 171, (1R,3S,5s,7s)-2-(5-(3-cyano-6-(2-hydroxy-2-methylpropoxy)pyrazolo[1,5-a]pyridin-4-yl)pyrazin-2-yl)-N-(6-methoxypyridin-3-yl)-2-azaadamantane-5-carboxamide]	≤ 10	10 to 50		
CCOc1cc(-c2cnc(N3C[C@H]4C[C@H](NC(=O)c5ncccc5Cl)C[C@H]4C3)cn2)c2c(C#N)cnn2c1 [Example 50, 3-chloro-N-((3aR,5s,6aS)-2-(5-(3-cyano-6-ethoxypyrazolo[1,5-a]pyridin-4-yl)pyrazin-2-yl)octahydrocyclopenta[c]pyrrol-5-yl)picolinamide]	≤ 10		> 100	10 to 50

Continued, in another order:

IC50 (human RET kinase) [nM]	GI50 (BAF3-KIF5B-RET cells) [nM]	IC50 (human KDR kinase) [nM]	SMILES	IC50 (TT cells) [nM]
≤ 10	≤ 10		CC(C)(O)COc1cc(-c2ccc(N3C[C@H]4C[C@@H](NC(=O)c5ncccc5Cl)C[C@H]4C3)nc2)c2c(C#N)cnn2c1 [Example 106, 3-chloro-N-((3aR,5r,6aS)-2-(5-(3-cyano-6-(2-hydroxy-2-methylpropoxy)pyrazolo[1,5-a]pyridin-4-yl)pyridin-2-yl)octahydrocyclopenta[c]pyrrol-5-yl)picolinamide]	
≤ 10	≤ 10		Cn1cc(-c2cc(-c3ccc(N4C[C@@H]5C[C@](C)(NC(=O)c6ncccc6Cl)C[C@@H]5C4)nc3)c3c(C#N)cnn3c2)cn1 [Example 173, 3-chloro-N-((3aR,5r,6aS)-2-(5-(3-cyano-6-(1-methyl-1H-pyrazol-4-yl)pyrazolo[1,5-a]pyridin-4-yl)pyridin-2-yl)-5-methyloctahydrocyclopenta[c]pyrrol-5-yl)picolinamide]	
≤ 10	10 to 50		COc1ccc(C(=O)NC[C@@H]2[C@H]3CN(c4cnc(-c5cc(-c6cnn(C)c6)cn6ncc(C#N)c56)cn4)C[C@@H]23)cn1 [Example 156, N-(((1R,5S,6s)-3-(5-(3-cyano-6-(1-methyl-1H-pyrazol-4-yl)pyrazolo[1,5-a]pyridin-4-yl)pyrazin-2-yl)-3-azabicyclo[3.1.0]hexan-6-yl)methyl)-6-methoxynicotinamide]	
≤ 10	≤ 10		COc1ccnc(C(=O)NC[C@@H]2[C@H]3CN(c4ccc(-c5cc(-c6cnn(C)c6)cn6ncc(C#N)c56)cn4)C[C@@H]23)c1 [Example 193, N-(((1R,5S,6s)-3-(5-(3-cyano-6-(1-methyl-1H-pyrazol-4-yl)pyrazolo[1,5-a]pyridin-4-yl)pyridin-2-yl)-3-azabicyclo[3.1.0]hexan-6-yl)methyl)-4-methoxypicolinamide]	
≤ 10	10 to 50		COc1cncc(C(=O)NC[C@@H]2[C@H]3CN(c4ccc(-c5cc(-c6cnn(C)c6)cn6ncc(C#N)c56)cn4)C[C@@H]23)c1 [Example 192, N-(((1R,5S,6s)-3-(5-(3-cyano-6-(1-methyl-1H-pyrazol-4-yl)pyrazolo[1,5-a]pyridin-4-yl)pyridin-2-yl)-3-azabicyclo[3.1.0]hexan-6-yl)methyl)-5-methoxynicotinainide]	
≤ 10		≤ 10	Cc1ccc(Cl)c(C(=O)NC[C@@H]2[C@H]3CN(c4ccc(-c5cc(-c6cnn(C)c6)cn6ncc(C#N)c56)cn4)C[C@@H]23)n1 [Example 82, 3-chloro-N-(((1R,5S,6s)-3-(5-(3-cyano-6-(1-methyl-1H-pyrazol-4-yl)pyrazolo[1.5-a]pyridin-4-yl)pyridin-2-yl)-3-azabicyclo[3.1.0]hexan-6-yl)methyl)-6-methylpicolinamide]	≤ 10
≤ 10		≤ 10	Cn1cc(-c2cc(-c3ccc(N4C[C@@H]5[C@H](CNC(=O)c6ncccc6Cl)[C@@H]5C4)nc3)c3c(C#N)cnn3c2)cn1 [Example 78, 3-chloro-N-(((1R,5S,6r)-3-(5-(3-cyano-6-(1-methyl-1H-pyrazol-4-yl)pyrazolo[1,5-a]pyridin-4-yl)pyridin-2-yl)-3-azabicyclo[3.1.0]hexan-6-yl)methyl)picolinamide]	≤ 10
≤ 10		≤ 10	Cn1cc(-c2cc(-c3ccc(N4C[C@@H]5[C@@H](CNC(=O)c6cc(F)ccc6Cl)[C@@H]5C4)nc3)c3c(C#N)cnn3c2)cn1 [Example 80, 2-chloro-N-(((1R,5S,6s)-3-(5-(3-cyano-6-(1-methyl-1H-pyrazol-4-yl)pyrazolo[1,5-a]pyridin-4-yl)pyridin-2-yl)-3-azabicyclo[3.1.0]hexan-6-yl)methyl)-5-fluorobenzamide]	≤ 10
